SMILES strings stand for the structures. Like-named read-outs stand apart in the source and are kept apart here.

For data set [1], the target named is hCB2 (Homo sapiens, UniProt P34972). Put plainly: In vitro binding assay using hCB2-CHO membranes, [3H]-CP-55,940 displacement (Protocol IV). As to conditions: 1 h; hCB2-CHO membranes, [3H]-CP-55,940 displacement; read-out: % Displacement Protocol IV. Set-up: expressed in transfected cells; host or cells: CHO (hCB2-CHO, generated in-house). The method, boiled down: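 Displacement of [3H]-CP-55,940 (0.75 nM) from membranes of CHO cells expressing human CB2 (25-50 μg) was measured in Tris-BSA buffer pH 7.4 with 5 mM MgCl2, 1 mM EDTA, 0.1% BSA, 1 h at 30 °C. Test compounds were at 300 nM final; nonspecific binding defined with 0.5 μM CP-55,940. Values are % displacement of specific binding.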

The target in data set [2] is T1, CB1 (Rattus norvegicus, UniProt P20272). Put plainly: GTPγS binding assay, CB1 functional assay in rat cerebellar membrane (Protocol VIII). The data set is classed as biochemical. Set-up: 10 μg rat cerebellum membrane; from tissue; host or cells: rat cerebellum membrane, prepared in-house. As to conditions: for activation at 1 µM / activation at 0.3 µM: 1 h, GTPγS binding over basal, rat cerebellar membrane, read-out: Per Se % Stimulation; for activation at 1 µM: tested at 1 uM; for inhibition at 1 µM / inhibition at 0.3 µM: GTPγS binding, read-out: % Inhibition of WIN-55212-2 induced stimulation; for inhibition at 1 µM: tested at 1 uM in presence of 1 μM WIN 55,212-2; for activation at 0.3 µM: tested at 300 nM; for inhibition at 0.3 µM: tested at 300 nM in presence of 1 μM WIN 55,212-2. The procedure: VIII. Protocol for GTPγS Binding Assay (CB1 Functional Assay in Rat Cerebellar Membrane)
In this GTPγS binding assay, total, basal and nonspecific binding were determined. See Griffin G., Atkinson P. J., Showalter V. M., Martin B. R. and Abood M. E., “Evaluation of cannabinoid receptor agonists and antagonists using the Guanosine-5′-O-(3-(^35S)thio)-triphosphate binding assay in rat cerebellar membranes,” J Pharmacol Exp Ther 285: 553-560, 1998. Three wells for total binding, three wells for basal binding, and three wells for nonspecific binding at 0.2 nM concentration of radioligand were used. Basal binding was defined by 50 μM GDP (Guanosine diphosphate) and non-specific binding was defined by 10 μM unlabeled GTPγS. 10 μg rat cerebellum membrane, 50 μM of GDP, WIN-55212-2 or test compound (1 μM or 300 nM), 10 μM unlabeled GTPγs, and 0.2 nM of [^35S]GTPγS were added into a 96 well plate and the final volume of the reaction mixture was made with GTPγS buffer (50 mM Tris, 3 mM anhydrous MgCl2, 0.2 mM EGTA and 100 mM NaCl pH 7.4) to 200 μl. The plates were incubated at 30° C. for 1 hour. Then the reaction was stopped by filtration using a Whatman GF/B-96 microfilter plate. Three washings were given using Tris-HCl. The radioactivity bound to the brain membrane was retained on the filter disks to which scintillation fluid was added (Microscint PS). Then plates were read for radioactive counts using a Beta Liquid Scintillation Counter (Packard Instruments, Ill., USA).
The rat cerebellar brain membrane was prepared as follow: • 1. Sacrifice the rat and take out the whole brain and separate cerebellum as fast as possible and keep it on ice. • 2. Take the weight of the cerebellum and homogenize in 30 ml of homogenizing buffer (50 mM Tris-HCL containing 1 mM EDTA and 5% sucrose, pH 7.5) using homogenizer in cold condition. • 3. Centrifuge the homogenized cerebellum at 18000 rpm (38000 g) for 15 min at 4° C. • 4. Resuspend the pellet in 5 ml 50 mM Tris-HCL containing 1 mM EDTA and keep it on ice for 30 min. • 5. Pass the membrane through insulin syringe to ensure uniform suspension. • 6. Centrifuge the membrane at 18000 rpm at 4° C. for 20 min. • 7. Reconstitute the pellet in 3 ml of GTPγS buffer and estimate the protein by BCA assay and store the membrane in aliquots of 1000 μg of protein. CB1 Agonist and Antagonist Activity Screening Assay
The test compounds were screened at a final concentration of 1 μM or 300 nM in the absence and presence of 1 μM of WIN 55, 212-2 in the same manner as described in the GTPγS binding assay.
An agonist will stimulate the GTPγS binding over the basal.
An inverse agonist will decrease the basal GTPγS binding and/or produce more than 100% inhibition of the agonist (WIN-55212-2) induced stimulation.
The percent stimulation of GTPγS binding by each test compound at 1 μM or 300 nM concentration in the absence and presence of 1 μM WIN 55, 212-2 was calculated by comparing it with basal specific bound (Basal binding—Non Specific binding) values.

For data set [3], the target named is T1, CB1. Nature of the data set: Rat CB1 receptor binding using brain membrane, [3H]SR141716A displacement (Protocol I). Also noted: CB1 receptor present in a rat brain membrane preparation; from tissue; host or cells: rat brain membrane; inhibition: dose or concentration left out as unconfirmed. As to conditions: 1 h.
[4] abbreviates: rat brain membrane, [3H]SR141716A displacement, read-out: % Displacement Protocol I.
The mark [5] stands for this setting: read-out: % Displacement Protocol I, rat brain membrane, [3H]SR141716A displacement.

T1 sequence (P20272 whole entry): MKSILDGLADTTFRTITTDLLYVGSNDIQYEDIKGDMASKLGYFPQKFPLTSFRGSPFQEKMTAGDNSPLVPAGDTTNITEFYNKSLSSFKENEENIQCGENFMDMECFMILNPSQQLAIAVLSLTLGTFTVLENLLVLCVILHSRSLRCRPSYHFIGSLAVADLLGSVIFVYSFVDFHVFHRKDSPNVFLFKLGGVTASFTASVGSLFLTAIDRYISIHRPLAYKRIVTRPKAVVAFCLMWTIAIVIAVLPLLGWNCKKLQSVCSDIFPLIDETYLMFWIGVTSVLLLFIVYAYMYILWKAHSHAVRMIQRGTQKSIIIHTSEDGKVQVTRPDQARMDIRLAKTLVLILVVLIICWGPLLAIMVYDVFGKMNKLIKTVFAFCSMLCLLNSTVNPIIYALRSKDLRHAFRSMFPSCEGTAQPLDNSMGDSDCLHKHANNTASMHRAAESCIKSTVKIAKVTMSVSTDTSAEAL
hCB2, sequence (P34972 whole entry): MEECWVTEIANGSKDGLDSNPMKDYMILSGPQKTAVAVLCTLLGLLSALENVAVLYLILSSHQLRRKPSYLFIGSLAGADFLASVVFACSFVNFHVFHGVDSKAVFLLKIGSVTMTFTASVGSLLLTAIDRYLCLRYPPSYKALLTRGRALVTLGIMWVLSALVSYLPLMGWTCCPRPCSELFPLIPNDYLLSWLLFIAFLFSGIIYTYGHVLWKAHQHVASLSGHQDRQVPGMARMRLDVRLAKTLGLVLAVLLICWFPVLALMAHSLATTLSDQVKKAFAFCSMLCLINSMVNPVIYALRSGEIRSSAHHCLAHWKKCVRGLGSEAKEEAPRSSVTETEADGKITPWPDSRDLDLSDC

In the case of `O=C(NCc1ccc(F)cc1)c1nn(-c2ccc(Cl)cc2Cl)c2c1C1CC3CC(C1)CC2C3` [Example 172, N(7)-(4-Fluorobenzyl)-5-(2,4-dichlorophenyl)-5,6-diazatetracyclo[7.3.1.1^3,11.0^4,8]tetradeca-4(8),6-diene-7-carboxamide], the melting point lay in the range of 68 to 70 °C. Besides, the inhibition at 0.3 µM in data set [1] amounted to 25.1%. Further, in data set [2], the activation at 1 µM was -18.3% and the inhibition at 1 µM was found to be 115%. For the same molecule, in data set [3] (setting [4]), the inhibition was found to be 59.2%.
With `O=C(NCc1ccccc1Cl)c1nn(-c2ccc(Cl)cc2)c2c1C1CC3CC(C1)CC2C3` [Example 111, N(7)-(2-Chlorobenzyl)-5-(4-chlorophenyl)-5,6-diazatetracyclo[7.3.1.1^3,11.0^4,8]tetradeca-4(8),6-diene-7-carboxamide], the melting point was 162 to 164 °C. In addition, in data set [2], the activation at 1 µM was 6.1% and the inhibition at 1 µM was found to be 101%. In addition, the inhibition in data set [3] (setting [4]) was determined as 111%.
`O=C(NNc1ncccc1Cl)c1nn(-c2ccc(Cl)cc2Cl)c2c1C1CCC2C1` (stereo not drawn) [Example 267, N(3)-[(3-chloropyridin-2-yl)amino]-1-(2,4-dichlorophenyl)-4,5,6,7-tetrahydro-1H-4,7-methano-indazole-3-carboxamide] registered a melting point of 95 °C. For the same molecule, in data set [2], the activation at 0.3 µM stood at 12.3% and the inhibition at 0.3 µM worked out at 43.6%. Besides, the inhibition in data set [3] (setting [4]) stood at 90%.
For the molecule `CC12CCC(C1)C(C)(C)C2NC(=O)c1nn(-c2ccc(Cl)cc2Cl)c2c1C1CCC2C1` (stereo not drawn) [Example 241, N(3)-(1,3,3-Trimethylbicyclo[2.2.1]hept-2-yl)-1-(2,4-dichlorophenyl)-4,5,6,7-tetrahydro-1H-4,7-methano-indazole-3-carboxamide], the melting point is 156 to 159 °C. Besides, in data set [2], the activation at 0.3 µM turned out to be 54.7% and the inhibition at 0.3 µM turned out to be 32.9%. In data set [3] (setting [5]), the inhibition is 92.5%.
Molecule `O=C(NNc1ccccc1)c1nn(-c2ccc(Cl)cc2Cl)c2c1C1CC3CC(C1)CC2C3` [Example 173, N(7)-Phenylamino-5-(2,4-dichlorophenyl)-5,6-diazatetracyclo[7.3.1.1^3,11.0^4,8]tetradeca-4(8),6-diene-7-carboxamide] gave a melting point of 162 to 163 °C. In addition, in data set [2], the activation at 1 µM was 1.3% and the inhibition at 1 µM amounted to 99.5%. For the same molecule, in data set [3] (setting [4]), the inhibition was found to be 67.1%.
The molecule `CN(NC(=O)c1nn(-c2ccc(Cl)cc2)c2c1C1CC3CC(C1)CC2C3)C1CCCCC1` [Example 107, N(7)-(N-cyclohexyl-N-methylamino)-5-(4-chlorophenyl)-5,6-diazatetracyclo[7.3.1.1^3,11.0^4,8]tetradeca-4(8),6-diene-7-carboxamide] displayed a melting point of 219 °C. In addition, in data set [2], the activation at 1 µM worked out at 4% and the inhibition at 1 µM amounted to 71.5%. The inhibition in data set [3] (setting [4]) is 97.4%.
`O=C(NN1CCCCC1)c1nn(-c2ccc(Cl)cc2Cl)c2c1C1CCC2c2ccccc21` (stereo not drawn) [Example 502, N(12)-Piperidino-10-(2,4-dichlorophenyl)-10,11-diazatetracyclo[6.5.2.0^2,7.0^9,13]pentadeca-2,4,6,9(13),11-pentaene-12-carboxamide] registered a melting point of 164 to 166 °C. Moreover, in data set [2], the activation at 1 µM came out at 1.8% and the inhibition at 1 µM came out at 91.1%. In data set [3] (setting [4]), the inhibition turned out to be 81.3%.
As for `O=C(NN(c1ccccc1)c1ccccc1)c1nn(-c2ccc(Cl)cc2)c2c1C1CC3CC(C1)CC2C3` [Example 137, N(7)-(N′,N′-Diphenylamino)-5-(4-chlorophenyl)-5,6-diazatetracyclo[7.3.1.1^3,11.0^4,8]tetradeca-4(8),6-diene-7-carboxamide], the melting point came out at 214 °C. Moreover, in data set [2], the activation at 1 µM is 13% and the inhibition at 1 µM is 76%. Further, the inhibition in data set [3] (setting [5]) stood at 76.7%.
`O=C(NC1CCCCC1)c1nn(-c2ccc(F)cc2F)c2c1C1CCC2C1` (stereo not drawn) [Example 290, N(3)-Cyclohexyl-1-(2,4-difluorophenyl)-4,5,6,7-tetrahydro-1H-4,7-methano-indazole-3-carboxamide]: the melting point was 119 °C. Besides, in data set [2], the activation at 1 µM was 3.8% and the inhibition at 1 µM was determined as 35.3%. The inhibition in data set [3] (setting [5]) was determined as 80.3%.
For the molecule `O=C(NCc1ccccc1Br)c1nn(-c2ccc(Cl)cc2)c2c1C1CCC2C1` (stereo not drawn) [Example 224, N(3)-(2-Bromobenzyl)-1-(4-chlorophenyl)-4,5,6,7-tetrahydro-1H-4,7-methano-indazole-3-carboxamide], the melting point is 141 to 142 °C. Moreover, in data set [2], the activation at 1 µM is 5% and the inhibition at 1 µM worked out at 78.1%. The inhibition in data set [3] (setting [5]) is 81.6%.
In the case of `O=C(NN1CCCCC1)c1nn(-c2ccc(F)cc2F)c2c1C1CC3CC(C1)CC2C3` [Example 143, N(7)-Piperidino-5-(2,4-difluorophenyl)-5,6-diazatetracyclo[7.3.1.1^3,11.0^4,8]tetradeca-4(8),6-diene-7-carboxamide], the melting point was 215 °C. In data set [2], the activation at 1 µM was 43.1% and the inhibition at 1 µM was found to be 45%. Further, the inhibition in data set [3] (setting [4]) was 102%.
In turn, `O=C(NCc1ccccc1)c1nn(-c2ccc(Cl)cc2Cl)c2c1C1CCC2c2ccccc21` (stereo not drawn) [Example 501, N(12)-Benzyl-10-(2,4-dichlorophenyl)-10,11-diazatetracyclo[6.5.2.0^2,7.0^9,13]pentadeca-2,4,6,9(13),11-pentaene-12-carboxamide] returned a melting point of 164 to 166 °C. In data set [2], the activation at 1 µM stood at 53.7% and the inhibition at 1 µM was 40.1%. Also, the inhibition in data set [3] (setting [4]) stood at 82.5%.
`C[C@@H](NC(=O)c1nn(-c2ccc(Cl)cc2Cl)c2c1C1CCC2C1)c1ccccc1` (stereo partly drawn) [Example 253, N(3)-[R-(1-phenylethyl)]-1-(2,4-dichlorophenyl)-4,5,6,7-tetrahydro-1H-4,7-methano-indazole-3-carboxamide] came in with a melting point of 89 to 92 °C. Besides, in data set [2], the activation at 0.3 µM is -9.3% and the inhibition at 0.3 µM is 79.9%. Further, the inhibition in data set [3] (setting [4]) is 63%.
Molecule `O=C(NNc1ccccc1)c1nn(-c2ccc(Cl)cc2Cl)c2c1C1CCC2C1` (stereo not drawn) [Example 256, N(3)-Phenylamino-1-(2,4-dichlorophenyl)-4,5,6,7-tetrahydro-1H-4,7-methano-indazole-3-carboxamide] gave a melting point of 182 to 185 °C. Besides, in data set [2], the activation at 1 µM was -21.5% and the inhibition at 1 µM worked out at 69.7%. Moreover, the inhibition in data set [3] (setting [4]) is 63.3%.

One may read the melting point as the temperature, or range, at which the solid turns liquid.

For the origin of these results see patent US7923465B2, “Cannabinoid receptor ligands, pharmaceutical compositions containing them, and process for their preparation” (priority 2005, dated 2011).
